Measurements: patent US9422267B2, “Fused pyrimidine compounds and use thereof” (Medivation Technologies, Inc., priority 2012, dated 2016)
Like-named read-outs stand apart in the source and are kept apart here. Each block holds one molecule with its values, some of them ahead of it.

Key:
HCC 1187 = assay: Cell Titer-Glo cell viability: HCC 1187; type: cell-based; conditions: Homo sapiens
Description: (§1) Compound nos. […] This panel of cell lines includes an ER− breast carcinoma, primary breast ductal carcinoma, prostate adenocarcinoma, mammary adenocarcinoma, mammary ductal carcinoma, mammary ductal carcinoma, ovary adenocarcinoma, ER+ breast carcinoma, ER-HER2+ mammary ductal carcinoma and an ER+ mammary ductal carcinoma, respectively.
(§2) This assay quantitates the ATP present in order to determine the number of viable cells in culture. Briefly, the compounds were incubated with the cells for 72 h, followed by cell lysis. The resulting luminescent signal is proportional to the amount of ATP present and, therefore, directly proportional to the number of cells present in culture.
(§3) Compounds 2b, 5, 6b and 10a were tested along with derivatives in viability assays as described above by Caliper LifeSciences Systems (Hanover, Md.), in A549, HCT-15, HCT-116, MCF-7, MDA-MB-231, OVCAR3, T47D, COLO205, HT-29, BT-20, HCC1187, HL-60, MDA-MB-175, SW-620, and UACC812 cells.

LNCaP = assay: Cell Titer-Glo cell viability: LNCaP; type: cell-based; conditions: Homo sapiens
Description: as §1, §2

NTRK2 (TRKB) = NTRK2 (TRKB) (Homo sapiens, UniProt Q16620); assay: Caliper kinase profiling: NTRK2 (TRKB)
Description: (§7) The compound was tested at concentrations of 1.0×10^−8 and 1.0×10^−9 M in the RapidKinase192™ panel in duplicate. […] The screening was performed using the Caliper EZReader2, a 4-sipper LabChip, and ProfilerPro Kinase Selectivity Assay Kits 1 and 2. The assay measures the conversion of a fluorescent peptide substrate to a phosphorylated product. Briefly, the reaction mixture was introduced through a capillary sipper onto the microfluidic chip, where the substrate and product were electrophoretically separated and detected by laser-induced fluorescence. The time-dependent fluorescence signal indicates the extent of the reaction.
(§8) The kinases tested were AurA, AurB, AurC, AXL, FAK2, IGF1R, InsR, Mer, MET, TrkB and TrkC.
(§9) The assays were conducted using the Caliper LabChip 3000 and a 12-sipper LabChip as described above.

MDA MB 231 = assay: Cell Titer-Glo cell viability: MDA MB 231; type: cell-based; conditions: Homo sapiens, MDAMB231, breast cancer
Description: as §1, §2, §3

TRKC (NTRK3) = TRKC (NTRK3) (Homo sapiens, UniProt Q16288); assay: Caliper kinase profiling: TRKC (NTRK3)
Description: as §7, §8, §9

FAK2(PTK2b) = FAK2(PTK2b) (Homo sapiens, UniProt Q14289); assay: Caliper kinase assay: FAK2(PTK2b)
Description: as §7, §8, §9

HCT-116 = assay: Cell Titer-Glo cell viability: HCT-116; type: cell-based; conditions: Homo sapiens, HCT116, colon carcinoma
Description: as §2
(§4) Compound nos. […] These cell lines are derived from human lung carcinoma, colon adenocarcinoma, colon adenocarcinoma, colon carcinoma, acute promyelocytic leukemia, colon adenocarcinoma, colon adenocarcinoma (from metastatic site lymph node), respectively.
as §3

HL-60 = assay: Cell Titer-Glo cell viability: HL-60; type: cell-based, human; conditions: Homo sapiens, HL-60, 72 h
Description: as §2, §4, §3

IR = biological target: T1, IR (Homo sapiens, UniProt P06213); assay: In vitro IR enzymatic assay (ADP-Glo kinase assay); type: biochemical; conditions: activated IR; read-out: IC50
T1 construct: purchased Millipore 14-803
Description: (§5) IC50 values of the compounds of the invention against IGF-1R and IR were measured in vitro using an ADP-Glo kinase assay Kit (Promega). […] Kinase reactions in both assays were conducted at 30° C. for 20 min with increasing concentrations of compounds of the invention.

A549 = assay: Cell Titer-Glo cell viability: A549; type: cell-based; conditions: Homo sapiens, A549, 72 h, A549, non-small lung carcinoma
Description: as §2, §4, §3

MDA MB 175 = assay: Cell Titer-Glo cell viability: MDA MB 175; type: cell-based
Description: as §1, §2, §3
(§6) The inhibitory effects of Compound 8a were tested in two cell lines.

BT-20 = assay: Cell Titer-Glo cell viability: BT-20; type: cell-based; conditions: Homo sapiens
Description: as §1, §2, §3

IGF1R = IGF1R (Homo sapiens, UniProt P08069); assay: In vitro IGF-1R enzymatic assay (ADP-Glo kinase assay); type: biochemical; design: purchased Millipore 14-802
Description: as §5

OVCAR-3 = assay: Cell Titer-Glo cell viability: OVCAR-3; type: cell-based; conditions: Homo sapiens, OVCAR3, ovarian cancer
Description: as §1, §2, §3

HCT-15 = assay: Cell Titer-Glo cell viability: HCT-15; type: cell-based; conditions: Homo sapiens, HCT-15, 72 h, HCT15, colon carcinoma
Description: as §2, §4, §3

SW-620 = assay: Cell Titer-Glo cell viability: SW-620; type: cell-based; conditions: Homo sapiens, SW-620, 72 h, SW-620, metastatic colorectal cancer
Description: as §2, §4, §3

MCF-7 = assay: Cell Titer-Glo cell viability: MCF-7; type: cell-based; conditions: Homo sapiens, MCF7, breast cancer
Description: as §1, §2, §3

[1] = test system: Akt phosphorylation induced by IGF-1R in HT-29 cells; assay: Western blot analysis of Akt phosphorylation induced by IGF-1R; type: cell-based, Human; conditions: then IGF-1 10 ng/mL 10 min, HT-29
T47D = assay: Cell Titer-Glo cell viability: T47D; type: cell-based; conditions: Homo sapiens, breast cancer
Description: as §1, §2, §3

UACC 812 = assay: Cell Titer-Glo cell viability: UACC 812; type: cell-based; conditions: Homo sapiens
Description: as §1, §2, §3, §6

[2] = 72 h incubation, Cell Titer-Glo
[3] = activated IGF-1R, read-out: IC50
[4] = read-out: Average % Inh @ 10 nM

Sequence of NTRK2 (TRKB) (Q16620 32-822): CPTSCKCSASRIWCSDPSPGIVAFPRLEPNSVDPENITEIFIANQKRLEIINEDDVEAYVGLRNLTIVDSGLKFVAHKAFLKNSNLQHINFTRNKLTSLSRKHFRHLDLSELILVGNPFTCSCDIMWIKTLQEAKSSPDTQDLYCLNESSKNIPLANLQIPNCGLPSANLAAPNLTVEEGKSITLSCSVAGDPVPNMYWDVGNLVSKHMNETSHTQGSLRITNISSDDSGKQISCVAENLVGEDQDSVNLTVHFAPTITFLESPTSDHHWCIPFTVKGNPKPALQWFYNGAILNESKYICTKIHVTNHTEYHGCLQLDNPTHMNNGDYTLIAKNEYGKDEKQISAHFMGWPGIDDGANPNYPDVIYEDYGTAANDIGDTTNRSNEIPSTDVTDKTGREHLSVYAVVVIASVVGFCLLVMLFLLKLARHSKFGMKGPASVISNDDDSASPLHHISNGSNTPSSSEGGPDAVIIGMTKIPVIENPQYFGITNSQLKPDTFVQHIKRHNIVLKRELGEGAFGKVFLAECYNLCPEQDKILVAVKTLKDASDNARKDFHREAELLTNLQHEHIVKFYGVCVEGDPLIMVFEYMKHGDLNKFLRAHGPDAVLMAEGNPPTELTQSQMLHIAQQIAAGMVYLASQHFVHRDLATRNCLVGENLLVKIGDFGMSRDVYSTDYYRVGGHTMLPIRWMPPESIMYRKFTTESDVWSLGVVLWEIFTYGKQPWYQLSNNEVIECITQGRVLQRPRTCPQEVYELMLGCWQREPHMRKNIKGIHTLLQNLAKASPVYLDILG
Sequence of IGF1R (P08069 31-1367): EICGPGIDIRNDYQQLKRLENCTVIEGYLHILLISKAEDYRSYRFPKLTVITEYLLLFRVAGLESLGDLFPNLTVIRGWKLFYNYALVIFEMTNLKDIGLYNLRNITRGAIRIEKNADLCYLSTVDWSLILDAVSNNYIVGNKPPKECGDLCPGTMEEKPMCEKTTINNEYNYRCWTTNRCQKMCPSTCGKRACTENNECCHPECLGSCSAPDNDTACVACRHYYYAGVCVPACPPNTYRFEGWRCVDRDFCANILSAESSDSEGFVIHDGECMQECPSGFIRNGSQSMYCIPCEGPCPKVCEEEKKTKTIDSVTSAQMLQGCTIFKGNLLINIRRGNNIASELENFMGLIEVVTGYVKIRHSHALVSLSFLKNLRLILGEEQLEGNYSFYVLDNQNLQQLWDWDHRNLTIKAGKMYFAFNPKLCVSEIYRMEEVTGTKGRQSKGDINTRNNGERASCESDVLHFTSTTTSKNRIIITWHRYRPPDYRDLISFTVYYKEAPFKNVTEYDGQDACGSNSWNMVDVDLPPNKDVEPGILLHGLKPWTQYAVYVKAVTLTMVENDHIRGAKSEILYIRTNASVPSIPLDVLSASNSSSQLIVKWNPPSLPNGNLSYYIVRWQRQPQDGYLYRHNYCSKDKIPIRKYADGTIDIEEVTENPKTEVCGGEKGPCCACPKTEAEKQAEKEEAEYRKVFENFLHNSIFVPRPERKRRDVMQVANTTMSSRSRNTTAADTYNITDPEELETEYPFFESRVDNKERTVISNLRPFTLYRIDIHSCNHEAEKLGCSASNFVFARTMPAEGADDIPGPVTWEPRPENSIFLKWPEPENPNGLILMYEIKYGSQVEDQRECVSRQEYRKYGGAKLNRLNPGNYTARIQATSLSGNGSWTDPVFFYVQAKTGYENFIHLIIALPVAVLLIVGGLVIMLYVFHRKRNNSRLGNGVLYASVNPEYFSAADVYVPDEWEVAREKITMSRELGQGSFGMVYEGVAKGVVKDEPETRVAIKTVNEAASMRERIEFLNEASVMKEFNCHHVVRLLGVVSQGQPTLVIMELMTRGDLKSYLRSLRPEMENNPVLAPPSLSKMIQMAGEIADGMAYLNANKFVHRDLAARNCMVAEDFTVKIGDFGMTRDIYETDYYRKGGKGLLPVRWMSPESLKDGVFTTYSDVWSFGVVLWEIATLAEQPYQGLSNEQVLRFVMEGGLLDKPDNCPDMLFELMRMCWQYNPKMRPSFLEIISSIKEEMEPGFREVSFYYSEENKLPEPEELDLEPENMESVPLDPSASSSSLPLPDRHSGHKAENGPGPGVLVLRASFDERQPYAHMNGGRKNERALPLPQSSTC
Sequence of TRKC (NTRK3) (Q16288 32-839): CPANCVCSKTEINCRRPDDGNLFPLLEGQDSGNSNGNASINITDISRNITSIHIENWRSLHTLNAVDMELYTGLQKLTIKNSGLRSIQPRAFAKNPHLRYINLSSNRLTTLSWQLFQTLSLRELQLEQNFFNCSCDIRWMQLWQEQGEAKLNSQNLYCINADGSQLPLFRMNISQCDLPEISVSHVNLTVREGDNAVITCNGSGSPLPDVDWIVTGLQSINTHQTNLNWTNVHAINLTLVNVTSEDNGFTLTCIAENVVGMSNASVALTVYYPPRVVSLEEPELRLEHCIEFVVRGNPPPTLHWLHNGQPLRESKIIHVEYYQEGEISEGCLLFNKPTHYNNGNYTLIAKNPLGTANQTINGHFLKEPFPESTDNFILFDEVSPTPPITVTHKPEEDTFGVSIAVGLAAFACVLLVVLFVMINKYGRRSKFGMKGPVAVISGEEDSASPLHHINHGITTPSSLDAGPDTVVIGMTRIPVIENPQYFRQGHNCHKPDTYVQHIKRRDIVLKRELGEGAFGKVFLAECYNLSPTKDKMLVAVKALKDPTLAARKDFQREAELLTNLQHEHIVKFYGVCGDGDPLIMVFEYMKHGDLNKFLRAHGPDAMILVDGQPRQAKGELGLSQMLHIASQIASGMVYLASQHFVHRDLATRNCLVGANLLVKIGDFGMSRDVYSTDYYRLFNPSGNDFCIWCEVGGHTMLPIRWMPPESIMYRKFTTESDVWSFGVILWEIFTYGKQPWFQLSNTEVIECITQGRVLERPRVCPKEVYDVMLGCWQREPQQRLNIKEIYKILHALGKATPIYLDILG
Sequence of FAK2(PTK2b) (Q14289 whole entry): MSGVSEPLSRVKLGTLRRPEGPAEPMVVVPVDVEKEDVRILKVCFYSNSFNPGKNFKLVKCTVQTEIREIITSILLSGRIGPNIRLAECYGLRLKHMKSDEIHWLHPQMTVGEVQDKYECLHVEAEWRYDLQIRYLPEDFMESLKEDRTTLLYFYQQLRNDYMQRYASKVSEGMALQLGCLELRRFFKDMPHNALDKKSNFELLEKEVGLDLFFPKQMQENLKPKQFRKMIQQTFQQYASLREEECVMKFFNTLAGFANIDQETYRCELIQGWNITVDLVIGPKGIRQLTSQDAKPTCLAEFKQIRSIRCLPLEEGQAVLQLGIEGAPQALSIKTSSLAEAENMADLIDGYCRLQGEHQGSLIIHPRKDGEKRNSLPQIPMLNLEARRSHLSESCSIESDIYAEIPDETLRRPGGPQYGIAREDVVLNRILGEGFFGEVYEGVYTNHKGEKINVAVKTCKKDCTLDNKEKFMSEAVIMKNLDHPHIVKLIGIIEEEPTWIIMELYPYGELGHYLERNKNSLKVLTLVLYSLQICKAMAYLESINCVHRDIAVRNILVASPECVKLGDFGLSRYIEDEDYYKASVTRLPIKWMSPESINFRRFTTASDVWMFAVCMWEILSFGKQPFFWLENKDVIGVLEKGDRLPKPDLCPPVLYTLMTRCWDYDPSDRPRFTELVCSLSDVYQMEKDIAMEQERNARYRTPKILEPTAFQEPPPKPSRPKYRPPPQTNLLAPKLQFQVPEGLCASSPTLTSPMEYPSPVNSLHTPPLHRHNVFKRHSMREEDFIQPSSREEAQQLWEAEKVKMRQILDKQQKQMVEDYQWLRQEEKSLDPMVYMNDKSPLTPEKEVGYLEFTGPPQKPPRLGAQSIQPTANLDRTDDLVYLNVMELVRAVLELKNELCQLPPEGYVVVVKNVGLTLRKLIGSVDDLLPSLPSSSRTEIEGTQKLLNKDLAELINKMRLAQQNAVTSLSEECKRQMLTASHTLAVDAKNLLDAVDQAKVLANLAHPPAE

IC50 (HCC 1187; HCC1187, HCC-1187, breast cancer, 72 h incubation, Cell Titer-Glo): < 1000 nM | IC50 (LNCaP; Prostate cancer, 72 h incubation, Cell Titer-Glo): 100 nM | inhibition of TrkB in panel of 11 kinases (NTRK2 (TRKB); 0.01 μM): strongly inhibited | inhibition of TrkC in panel of 11 kinases (TRKC (NTRK3); 0.01 μM): strongly inhibited | inhibition of FAK2 in panel of 11 kinases (FAK2(PTK2b); 0.01 μM): strongly inhibited | IC50 (HCT-116; [2]): < 1000 nM | IC50 (HL-60; HL60, promyelocytic leukemia, 72 h incubation, Cell Titer-Glo): < 1000 nM | IC50 (IR): 41.3 nM | IC50 (A549; [2]): < 1000 nM | IC50 (BT-20; BT-20, breast cancer, 72 h incubation, Cell Titer-Glo): 1000 nM | IC50 (IGF1R; [3]): 6.5e-09 M | IC50 (OVCAR-3; [2]): < 100 nM | IC50 (HCT-15; [2]): 1000 nM | IC50 (SW-620; [2]): < 1000 nM | IC50 (MCF-7; [2]): < 1000 nM | IC50 (T47D; [2]): < 1000 nM
Compound: O=C(Nc1cnccn1)C1CCCN1c1nc2c(c(Nc3cc(C4CC4)[nH]n3)n1)CCC2 (single isomer, unassigned) [Compound 6b]
IC50 (MDA MB 231; [2]): < 1000 nM | IC50 (MDA MB 175; MDA-MB-175, breast cancer, 72 h incubation, Cell Titer-Glo): < 1000 nM | phosphorylated AKT levels normalized to actin levels (pAKT/actin) ([1]; 0.1 nM compound 2 h): 0.87 | phosphorylated AKT levels normalized to actin levels (pAKT/actin) ([1]; 1 nM compound 2 h): 0.18 | phosphorylated AKT levels normalized to actin levels (pAKT/actin) ([1]; 10 nM compound 2 h): 0.00 | phosphorylated AKT levels normalized to actin levels (pAKT/actin) ([1]; 100 nM compound 2 h): 0.00 | IC50 (UACC 812; UACC 812, breast cancer, 72 h incubation, Cell Titer-Glo): 1000 nM

IC50 (HCC 1187; HCC1187, breast cancer, 72 h): < 10000 nM | IC50 (LNCaP; prostate cancer, 72 h): < 10000 nM | IC50 (NTRK2 (TRKB)): 12.2 nM | inhibition at 0.001 µM (NTRK2 (TRKB); read-out: Average % Inh @ 1 nM): > 60% | inhibition at 0.01 µM (NTRK2 (TRKB); [4]): > 60% | IC50 (TRKC (NTRK3)): 3 nM | inhibition at 0.001 µM (TRKC (NTRK3); read-out: Average % Inh @ 1 nM): > 60% | inhibition at 0.01 µM (TRKC (NTRK3); [4]): > 60% | IC50 (FAK2(PTK2b)): 2.36 nM | IC50 (HCT-116; 72 h): 1000 nM | IC50 (HL-60; HL60, promyelocytic leukemia (second entry of the table), 72 h): < 10 nM | IC50 (HL-60; HL-60, promyelocytic leukemia, 72 h): 10 nM | IC50 (A549; 72 h): < 10000 nM | IC50 (BT-20; BT-20, BT20, breast cancer, 72 h): < 10000 nM | Hill Slope N1 (IGF1R; IGF-1R, ATP 100 μM, run N1): 1.042 | IC50 (IGF1R; IGF-1R, ATP 100 μM, run N1, read-out: IC50 (M) N1): 3.11e-09 M | Hill Slope N2 (IGF1R; IGF-1R, ATP 100 μM, run N2): 1.307 | IC50 (IGF1R; IGF-1R, ATP 100 μM, run N2, read-out: IC50 (M) N2): 5.49e-09 M | IC50 (IGF1R; [3]): 5.1e-09 M | IC50 (OVCAR-3; 72 h): 1000 nM | IC50 (HCT-15; 72 h): < 10000 nM | IC50 (SW-620; 72 h): 1000 nM | IC50 (MCF-7; 72 h): < 10000 nM | IC50 (T47D; 72 h): < 1000 nM
Compound: CC(C)c1cc(Nc2nc(N3CCCC3C(=O)Nc3ccc(F)nc3)nc3c2CCC3)n[nH]1 (single isomer, unassigned) [Compound 8b]
IC50 (MDA MB 231; 72 h): 10000 nM | IC50 (MDA MB 175; MDAMB175, breast cancer, 72 h): < 10000 nM | phosphorylated AKT levels normalized to actin levels (pAKT/actin) ([1]; 1 nM compound 2 h): 0.31 | phosphorylated AKT levels normalized to actin levels (pAKT/actin) ([1]; 10 nM compound 2 h): 0.04 | phosphorylated AKT levels normalized to actin levels (pAKT/actin) ([1]; 100 nM compound 2 h): 0.02 | IC50 (UACC 812; UACC-812, UACC812, breast cancer, 72 h): < 10000 nM
